From ChEMBL document CHEMBL1201862, “PubChem BioAssay data set” (2004)
Calls of active or inactive are those of the source.

Assays:
[1] = molecular target: NS3 (Hepatitis C virus, UniProt A3EZJ3); assay: HCV NS3 helicase inhibitor potency, dose response, biochemical, fluorescence polarization, ChemBridge library (AID 743264)
[2] = system: A549; assay: A549 cell toxicity, dose response, cytotoxicity control, plate reader, cherry-pick samples (AID 687028); type: functional, cell-based; conditions: Homo sapiens
[3] = molecular target: FAD-linked sulfhydryl oxidase ALR (Homo sapiens, UniProt P55789); assay: inhibitors of human ALR sulfhydryl oxidase, dose response, biochemical, H2O2 detection, luminescence, cherry-pick (AID 493248)
[4] = molecular target: Mu-type opioid receptor (Homo sapiens, UniProt P35372); type: functional, cell-based;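 also: U2OS cells with beta-arrestin recruitment to OPRM1 by beta-gal complementation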
[5] = molecular target: 5-hydroxytryptamine receptor 2A (Mus musculus, UniProt P35363); type: functional, cell-based;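 also: CHO-K1 cells with tagged receptor and beta-arrestin; agonist potency measured as compound-induced activation of the receptor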
[6] = molecular target: ADP-ribosylation factor GTPase-activating protein 1 (Rattus norvegicus, UniProt Q62848); assay: Fluorescence polarization-based biochemical high throughput dose response screening assay to identify inhibitors of ADP-ribosylation factor GTPase activating protein 1 (ARFGAP1).; type: functional
[7] = Luminescence Cell-Based Dose Response HTS to Identify Inhibitors of 5'UTR Stem-Loop Driven Prion Protein mRNA Translation in H4 Neuroglioblastoma Cells. [Related pubchem assays: 1827 (Project Summary), 1813 (Primary HTS)]; type: functional
[8] = inhibitors of firefly luciferase expression or activity, dose response, H4 neuroglioma cells, luminescence (AID 1990); type: functional, cell-based
[9] = HEK293T cytotoxicity, dose response, cytotoxicity control for miR-122 modulator project, cell-based, inhibitor set, cherry-pick, set 2 (AID 720697); type: functional
[10] = miR-122 activators in hepatoma reporter cells, dose response, cell-based, Huh7 psiCHECK-miR122, Renilla luciferase, cherry-picked (AID 651956); type: functional;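 also: huh7 hepatoma cells stably carrying a psiCHECK-2 miR-122 sensor plasmid; renilla luciferase signal reporting endogenous miR-122 activity after 48 h compound exposure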
[11] = inhibitors of SNCA 5'UTR-driven reporter translation, confirmation, H4 neuroglioma cells, luminescence (AID 1988); type: functional, cell-based
[12] = Counterscreen for antagonists of the human trace amine associated receptor 1 (hTAAR1): Fluorescence-based cell-based high throughput dose response assay to identify nonselective Ga16 antagonists.; type: functional
[13] = Counterscreen for […] of the human trace amine associated receptor 1 (TAAR1): Fluorescence-based cell-based high throughput dose response assay to identify nonselective Ga16 agonists.; type: functional
[14] = cytotoxicity in HEK293 cells, dose response, cytotoxicity control, cell-based, cherry-picked samples (AID 1053185); type: functional
[15] = cytotoxicity in HepG2 cells, dose response, cytotoxicity control, cell-based, cherry-picked samples (AID 1053183); type: functional
[16] = Late stage assay provider results from the probe development effort to identify inhibitors of the Plasmodium falciparum M18 Aspartyl Aminopeptidase (M18AAP): radiolabel-based cell-based dose response assay to identify compounds that inhibit P. falciparum growth in RBCs, Set 2..; type: functional
[17] = molecular target: Protein Wnt-3a (Mus musculus, UniProt P27467); assay: SAR analysis of small molecule antagonists of Gli-SUFU in a Wnt3a luminescent reporter assay.; type: functional
[18] = cytotoxicity in HeLa cells, dose response, cytotoxicity control, cell-based, plate reader, dry powder (AID 651946); type: functional
[19] = inhibitors of non-replicating M. tuberculosis, dose response, luciferase, dry powder (AID 651619); type: functional; conditions: Mycobacterium tuberculosis
[20] = inhibitors of non-replicating M. tuberculosis, dose response, luciferase, dry powder (AID 651620); type: functional; conditions: Mycobacterium tuberculosis

Chain of NS3 (A3EZJ3 whole entry): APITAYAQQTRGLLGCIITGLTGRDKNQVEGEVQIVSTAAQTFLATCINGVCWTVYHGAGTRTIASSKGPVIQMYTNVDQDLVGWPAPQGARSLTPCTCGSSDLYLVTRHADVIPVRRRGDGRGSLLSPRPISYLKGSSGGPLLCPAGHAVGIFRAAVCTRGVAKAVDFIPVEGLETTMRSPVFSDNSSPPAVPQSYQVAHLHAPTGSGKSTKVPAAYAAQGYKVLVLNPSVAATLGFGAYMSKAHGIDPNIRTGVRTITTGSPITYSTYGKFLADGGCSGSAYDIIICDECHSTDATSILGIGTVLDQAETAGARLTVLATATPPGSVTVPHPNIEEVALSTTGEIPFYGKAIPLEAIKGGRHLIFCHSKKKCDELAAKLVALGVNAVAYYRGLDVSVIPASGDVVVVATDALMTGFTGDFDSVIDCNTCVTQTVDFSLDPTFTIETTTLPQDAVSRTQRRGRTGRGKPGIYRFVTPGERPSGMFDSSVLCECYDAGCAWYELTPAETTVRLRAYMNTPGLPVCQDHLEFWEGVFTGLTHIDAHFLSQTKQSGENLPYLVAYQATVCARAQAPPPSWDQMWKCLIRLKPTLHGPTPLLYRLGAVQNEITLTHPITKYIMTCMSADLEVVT
Chain of ADP-ribosylation factor GTPase-activating protein 1 (Q62848 whole entry): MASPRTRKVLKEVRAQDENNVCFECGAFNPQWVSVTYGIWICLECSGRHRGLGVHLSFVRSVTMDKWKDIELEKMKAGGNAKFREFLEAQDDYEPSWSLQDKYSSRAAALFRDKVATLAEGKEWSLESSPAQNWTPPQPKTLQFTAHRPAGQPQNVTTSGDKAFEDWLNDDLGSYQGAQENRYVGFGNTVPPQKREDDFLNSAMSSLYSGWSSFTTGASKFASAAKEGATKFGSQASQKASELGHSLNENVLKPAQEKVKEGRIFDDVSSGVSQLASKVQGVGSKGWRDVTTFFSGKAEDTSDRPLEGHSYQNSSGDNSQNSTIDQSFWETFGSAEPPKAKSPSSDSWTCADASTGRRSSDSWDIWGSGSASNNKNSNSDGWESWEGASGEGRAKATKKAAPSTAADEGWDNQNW
Chain of Protein Wnt-3a (P27467 whole entry): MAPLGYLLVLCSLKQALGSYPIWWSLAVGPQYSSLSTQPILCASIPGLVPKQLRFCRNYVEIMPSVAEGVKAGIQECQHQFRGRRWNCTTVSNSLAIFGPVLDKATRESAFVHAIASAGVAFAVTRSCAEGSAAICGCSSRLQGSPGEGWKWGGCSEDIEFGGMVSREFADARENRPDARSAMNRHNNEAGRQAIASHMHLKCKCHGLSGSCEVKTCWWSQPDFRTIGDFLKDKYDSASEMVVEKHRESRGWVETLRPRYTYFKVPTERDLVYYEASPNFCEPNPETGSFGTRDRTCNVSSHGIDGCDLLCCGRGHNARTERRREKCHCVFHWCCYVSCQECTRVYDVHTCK
Chain of FAD-linked sulfhydryl oxidase ALR (P55789 whole entry): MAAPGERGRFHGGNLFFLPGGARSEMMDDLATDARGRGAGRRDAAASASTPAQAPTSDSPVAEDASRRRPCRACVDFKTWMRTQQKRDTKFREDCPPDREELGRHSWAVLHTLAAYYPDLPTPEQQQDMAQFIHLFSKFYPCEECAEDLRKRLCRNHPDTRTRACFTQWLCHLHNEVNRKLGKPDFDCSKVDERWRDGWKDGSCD
Chain of 5-hydroxytryptamine receptor 2A (P35363 whole entry): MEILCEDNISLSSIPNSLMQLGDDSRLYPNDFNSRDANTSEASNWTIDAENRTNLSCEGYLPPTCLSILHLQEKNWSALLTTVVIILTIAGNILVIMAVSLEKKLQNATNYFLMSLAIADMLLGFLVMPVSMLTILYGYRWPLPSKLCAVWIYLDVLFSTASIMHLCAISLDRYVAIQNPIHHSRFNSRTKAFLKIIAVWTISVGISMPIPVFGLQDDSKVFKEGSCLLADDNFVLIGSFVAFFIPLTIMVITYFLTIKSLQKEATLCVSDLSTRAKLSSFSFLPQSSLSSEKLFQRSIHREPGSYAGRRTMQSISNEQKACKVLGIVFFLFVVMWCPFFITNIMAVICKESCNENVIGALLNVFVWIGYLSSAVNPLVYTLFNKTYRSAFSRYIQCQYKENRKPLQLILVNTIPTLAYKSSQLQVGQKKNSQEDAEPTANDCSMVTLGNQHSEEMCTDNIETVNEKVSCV
Chain of Mu-type opioid receptor (P35372 whole entry): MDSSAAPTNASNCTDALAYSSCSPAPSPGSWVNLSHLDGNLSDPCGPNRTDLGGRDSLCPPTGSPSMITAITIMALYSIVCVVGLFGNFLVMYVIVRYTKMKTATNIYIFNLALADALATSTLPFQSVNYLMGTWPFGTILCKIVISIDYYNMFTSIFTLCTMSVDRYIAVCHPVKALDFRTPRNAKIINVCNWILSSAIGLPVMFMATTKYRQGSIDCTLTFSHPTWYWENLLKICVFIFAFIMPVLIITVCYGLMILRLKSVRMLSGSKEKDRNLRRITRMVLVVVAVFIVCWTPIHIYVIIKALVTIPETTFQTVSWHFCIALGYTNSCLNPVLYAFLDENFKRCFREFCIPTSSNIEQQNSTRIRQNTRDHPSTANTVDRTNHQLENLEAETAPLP

Cc1ccc(C(=O)O)cc1-n1c(C)ccc1C
IC50 [1]: 7.6 µM (inactive)

COc1ccc(S(=O)(=O)N2CCN(CC(=O)NC3CC3)CC2)cc1
AC50 [2]: 35.1 µM (active)

COc1ccccc1C(=O)NCCN1CCN(c2ccccc2)CC1
AC50 [3]: 3.86 µM (active) | EC50 [4]: 92.5 µM (inactive) | EC50 [5]: 0.662 µM (active)

C=CCOc1ccc(/C=C/C(=O)Nc2ccc(C(=O)NC)cc2)cc1
IC50 [6]: 52.2 µM (inactive)

Cc1oc(-c2ccc(Cl)cc2)nc1CN1CCCC(C(=O)NCc2ccco2)C1 (stereo not given)
EC50 [7]: > 120 µM (not active) | EC50 [8]: > 120 µM (not active) | AC50 [9]: 1.3 µM (active) | AC50 [10]: 6.37 µM (active) | EC50 [11]: > 120 µM (not active)

CCCOC(=O)c1c(-c2ccc(OC)cc2)oc2ccc(-c3ccc(OC)nc3)cc12
IC50 [12]: > 29.9 µM (inactive) | EC50 [13]: > 29.9 µM (inactive)

C[C@H]1CNC(=O)[C@@H](Cc2ccc(C(F)(F)F)cc2)CCn2nncc2COC1
AC50 [14]: > 52 µM (inactive) | AC50 [15]: 35.5 µM (active)

COc1ccc(C2CCN(c3ccnc4ccccc34)C2)cc1OC (stereo not given)
IC50 [16]: 2 µM (active)

CN(C)c1cc(NC(=O)c2cccc(F)c2)ncn1
IC50 [17]: > 21.8 µM (inactive)

Clc1ccc(-c2nnc(SCc3cn(-c4ccccc4)nn3)o2)cc1
AC50 [18]: > 52 µM (inactive) | IC90 [19]: 1 µM (active) | IC90 [20]: 1 µM (active)
